Test results as given in patent US20160106100A1, “MICROBICIDAL COMPOSITION COMPRISING AN ISOTHIAZOLONE AND AN AMINE OXIDE” (priority 2013, published 2016).

Key:
Assay type in all cases: cell-based
[1] = system: Aspergillus niger (DSM 12623); experiment: MIC and synergy index of MIT + N,N-Dimethyldodecan-1-amine oxide in Sabouraud glucose agar; details: for Synergy Index (Qa/QA + Qb/QB): sole biocide
Procedure: The synergism of a combination of 2-Methyl-isothiazolinone (MIT) with N,N-Dimethyldodecan-l-amine oxide was tested. Test organisms used was the mould Aspergillus niger (DSM 12623). For the purpose of the test, mixtures containing different concentrations of MIT and N,N-Dimethyldodecan-1-amine oxide were prepared and tested for their action on Aspergillus niger. The active compound mixtures in the corresponding concentrations were introduced into selective nutrient media (Sabouraud glucose agar for Aspergillus niger and the test organisms were likewise incorporated into the agar. The cell density in the agar was in each case 3.7·10^6 spores per ml for Aspergillus niger. The incubation time is 72 hours at 25° C. This was followed by visual testing for growth of Aspergillus niger. The growth was apparent through the formation of colonies or mycelia on the surface of the agar. In this way the minimum inhibitory concentrations (MICs) of the two active compounds were determined, individually and in combination. The MIC is the concentration at which there is no formation of colonies or mycelia on the surface of the agar ( Aspergillus niger).
The synergism that occurred was presented numerically by calculation of the synergy index (SI). This calculation was made using the common method of F. C. Kull et al., Applied Microbiology, vol. 9 (1961), p. 538. SI is calculated there in accordance with the following formula:
Synergy index SI=Qa/QA+Qb/QB
If the synergy index has a value of more than 1, this means that there is an antagonism. If the synergy index adopts a value of 1, this means that the action of the two biocides is additive. If the synergy index takes on a value of below 1, this means that there is synergism of the two biocides.
Calculation of the synergy index of N,N-Dimethyldodecan-1-arnine oxide+MIT in respect of Aspergillus niger for an incubation time of 72 hours at 25° C.

[2] = system: Candida albicans (ATCC 10231); experiment: MIC and synergy index of MIT + N,N-Dimethyldodecan-1-amine oxide in Muller Hinton Broth; details: for MHK: alone, 72 hours at 25° C.; for Synergistic Index / Total: single biocide alone
Procedure: Furthermore, the synergism of a combination of 2-Methyl-isothiazolinone (MIT) with N,N-Dimethyldodecan-1-amine oxide was tested using Candida albicans (ATCC 10231). For the purpose of the test, mixtures containing different concentrations of MIT and N,N-Dimethyldodecan-1-amine oxide were prepared and tested for their action on Candida albicans. The active compound mixtures in the corresponding concentrations were introduced into selective nutrient media (Muller Hinton Broth). The cell density in the broth was in each case 1.0-10^6 spores per ml. The incubation time is 72 hours at 25° C. This was followed by visual testing for growth of Candida albicans. In this way the minimum inhibitory concentrations (MICs) of the two active compounds were determined, individually and in combination. The synergism that occurred was presented numerically by calculation of the synergy index (SI).

Aspergillus niger = experiment: MIC and synergy index of ternary mixture Benzalkoniumchloride, N,N-Dimethyldodecan-1-amine oxide and MIT; details: used alone
Procedure: In a further Experiment the synergy index of a ternary mixture of Benzalkoniumchloride, N,N-Dimethyldodecan-1-amine oxide and MIT was determined in respect of Aspergillus niger for an incubation time of 72 hours at 25 ° C.
The synergy of an active substance mixture that contains Benzalkoniumchloride in addition to N,N-Dimethyldodecan-1-amine oxide and MIT, against the microorganism Aspergillus niger is shown as in Table 4.

Row | Molecule | MIC ([1]; Aspergillus niger, DSM12623, 72 h) | Synergy Index (Qa/QA + Qb/QB) [1] | MHK [2] | Synergistic Index [2] | Total [2] | MIC ([1]; as sole biocide, 72 hours at 25° C.) | Synergistic Index (Aspergillus niger) | MHK (Aspergillus niger; 72 hours at 25 ° C.)
1 | CCCCCCCCCCCC[N+](C)(C)[O-] [N,N-Dimethyldodecan-1-amine oxide] | 231 µg/mL | 1.00 | 50 ppm | 1.00 | 50 ppm | – | – | –
2 | Cn1sccc1=O [MIT, 2-methylisothiazolin-3-one] | – | 1.00 | 125 ppm | 1.00 | 125 ppm | 1000 (MIC) ppm | – | –
3 | Benzalkoniumchloride [BAC] | – | – | – | – | – | – | 1.00 | 80 ppm
